Data taken from patent US12133855B2, “Lipid-like nanocomplexes and uses thereof” (Trustees of Tufts College, priority 2018, dated 2024).

Experiments:
HeLa-DsRed cells [1] = test: Cre-mediated gene recombination (DsRed expression) after (−30)GFP-Cre/LNP delivery; assay type: cell-based; settings: 24 h; 25 nM (−30)GFP-Cre; lipidoid 3.3 mg/L
Procedure: (§1) The final (−30)GFP-Cre protein concentration is 25 nM, and lipidoid concentration is 3.3 mg/L. For the gene recombination functional study, HeLa-DsRed cells were treated with same conditions and the red fluorescence emission from DsRed was analyzed by flow cytometry 24 h after delivery.
The top 12 of LNPs identified through intracellular delivery screening experiments were further tested for gene recombination using HeLa-DsRed model cells. The expression of DsRed from Cre protein mediated gene recombination was analyzed after 24 h of co-incubation with free (−30)GFP-Cre protein and protein loaded LNPs. […] Most of the test LNPs, on the other hand, efficiently delivered (−30)GFP-Cre protein and induced gene recombination, with 14-46% of the cells positive for DsRed.

HeLa-DsRed cells [2] = test: Intracellular delivery of (−30)GFP-Cre/LNP (GFP-positive cells); assay type: cell-based; settings: flow cytometry, 6 h; 25 nM (−30)GFP-Cre; lipidoid 3.3 mg/L
Procedure: as §1
A Cre recombinase protein fused to a negatively supercharged GFP variant ((−30)GFP-Cre) was used as a model cargo protein. The (−30)GFP-Cre protein was able to complex with cationic LNPs through electrostatic attraction and other types supramolecular interactions. The cellular uptake of LNPs could be determined by direct analysis of intracellular GFP fluorescent intensity as reported in Wang. HeLa-DsRed cells were used in this study, which expressed red fluorescent DsRed upon Cre-mediated recombination to facilitate the functional study of delivered proteins in the following study.
The (−30)GFP-Cre protein loaded LNPs (GFP-Cre/LNPs) were prepared at first by simply mixing precalculated amount of aqueous solution of LNPs and protein at ambient conditions. For the intracellular delivery, after incubation with GFP-Cre/LNPs nanoparticles for 6 h, the GFP-positive cells were observed using fluorescence microscopy, harvested and counted by flow cytometry. […] The intracellular (−30)GFP-Cre protein delivery efficiencies were further quantified by flow cytometry.

HeLa-DsRed cells [3] = test: Genome editing efficiency of (−30)GFP-Cre/OCholB LNPs (DsRed+ cells); assay type: cell-based; settings: (−30)GFP-Cre 25, 50 and 100 nM
From the text: In this context, the internalization mechanism of the (−30)GFP-Cre/LNPs complexes was studied at first, by introducing different endocytosis inhibitors, i.e., sucrose (clathrin-mediated endocytosis inhibitor), methyl-β-cyclodextrin (M-β-CD, cholesterol-depleting agent), dynasore (dynamin II inhibitor) and nystatin (caveolin-mediated endocytosis inhibitor), following our previously reported procedures. […] Comparing to other combinatorial library studies, it is clear that even loaded with same cargoes and tested against same cell line, different lipidoids with different chemical structures could be internalized through very distinct pathways. Next, the genome-editing efficiencies of (−30)GFP-Cre/LNPs were determined by flow cytometry after 24 h of incubation (with 8 h of (−30)GFP-Cre/LNPs complex exposure). Three different concentrations of protein/lipidoid complexes (25 nM/1.7 μg mL^−1, 50 nM/3.4 μg mL^−1, and 100 nM/6.6 μg mL^−1) were tested for each lipidoid nanoparticle. […] For example, the DsRed^+ cells were recorded as 10.5%/24.9%/88.9%, 13.5%/55.4%/88.8%, and 27.7%/47.8%/94.7% for (−30)GFP-Cre loaded 75-OCholB, 76-OCholB and 77-OCholB, respectively, at the protein concentration of 25, 50 and 100 nM. […] Then, the cytotoxicity profiles of (−30)GFP-Cre/LNPs, (−30)GFP-Cre/Lpf2k and naked (−30)GFP-Cre at different concentrations against HeLa-DsRed cells (8 h of exposure; (−30)GFP-Cre/LNPs=25 nM/1.7 μg mL^−1, 50 nM/3.4 μg mL^−1, and 100 nM/6.6 μg mL^−1) are measured using MTT assay after 24 h of incubation. […] For (−30)GFP-Cre/75-OCholB treated cells, the viabilities were determined to be 95.5%, 91.8% and 83.1%, at the protein concentration of 25, 50 and 100 nM, respectively; the numbers for (−30)GFP-Cre/76-OCholB and (−30)GFP-Cre/77-OCholB are 97.8%/98.2%/97.2 and 100.9%/96.6%/98.6%. […] Meanwhile, the morphology changes of HeLa-DsRed cell treated with different nanoparticle formulations were studied and the results are shown in FIG. 15E. […] Samples found in upper left quadrant are non-toxic and inefficient for delivery; samples in lower left quadrant are toxic and inefficient; samples in lower right quadrant are efficient but toxic; samples in upper right quadrant are non-toxic and efficient, which would be top candidates for further study. It is clear that Lpf2k (shown in dotted purple circle) at high concentration is relatively efficient for genome editing, while also toxic to the target cells. On the other hand, most of the (−30)GFP-Cre loaded OCholB LNPs are almost non-toxic when compared to (−30)GFP-Cre/Lpf2k, similar to naked (−30)GFP-Cre protein. 87-OCholB, 90-OCholB and 304-OCholB (shown in dotted dark blue circle) are less efficient for genome-editing; while high genome editing efficacy and excellent tolerability were achieved by using 75-OCholB, 76-OCholB and 77-OCholB (shown in dotted green circle).

HeLa-DsRed cells [4] = assay type: cell-based; settings: (−30)GFP-Cre 25, 50 and 100 nM
Procedure: (§2) The internalization kinetics and efficiencies of OCholB LNPs were then studied using NR loaded LNPs and HeLa cells. […] Next, all of the NR delivery efficiencies of eight OCholB LNPs were determined after 8 h of exposure. […] Representative fluorescent images of NR/LNPs (NR/75-OCholB, NR/76-OCholB and NR/77-OCholB) treated HeLa cells are shown in FIG. 12D, from which it is easily observed that NR was delivered into the cells and mainly distributed in cytoplasm, by OCholB LNPs. Next, the internalization of negatively charged hydrophilic fluorescent dye, calcein, was studied. […] Next, the use of OCholB LNPs for the intracellular delivery of macromolecular cargo was explored, using fluorescent recombinant (−30)GFP-Cre protein and HeLa-DsRed cells as the model system. […] Delivery efficiency was tested at a range of (−30)GFP-Cre protein concentrations (25, 50 and 100 nM), with a consistent lipid/protein ratio (i.e., delivery with the final lipid concentration of 1.7, 3.3, and 6.6 μg mL^−1 respectively). 33.2%, 43.8% and 74% of GFP positive (GFP^+) cells were recorded for (−30)GFP-Cre/Lpf2k treated cells with the concentration of (−30)GFP-Cre 25 nM, 50 nM and 100 nM, respectively. […] The typical flow cytometry profiles of naked (−30)GFP-Cre protein and (−30)GFP-Cre loaded nanoparticles ((−30)GFP-Cre/75-OCholB, (−30)GFP-Cre/76-OCholB, (−30)GFP-Cre/77-OCholB and (−30)GFP-Cre/Lpf2k) treated HeLa-DsRed cells were shown in and FIG. 12H ([lipidoid]=6.6 μg mL^−1 and [(−30)GFP-Cre]=100 nM), which is consistent with the statistical results shown in FIG. 12G. Furthermore, the representative fluorescent images from the protein and protein/nanoparticle treated HeLa-DsRed cells are also shown in FIG. 12I.

HeLa cells [5] = test: Internalization of Nile red loaded nanoparticles (NR+ cells); assay type: cell-based; settings: 8 h of exposure
Procedure: as §2

[6] = Thiol-triggered size variation of OCholB LNPs (DTT, cysteine; DLS); assay type: physicochemical; settings: 10 mM DTT, 24 h
From the text: The thiol-trigged degradation and dissociation of the OCholB LNPs were studied by time-dependent DLS measurements and TEM observation. […] The disruption of the vesicle structure is considered to be resulted from the thiol-exchange and disulfide bond cleavage reactions of OCholB lipidoids. We next investigated whether the thiol-containing molecules (e.g. albumin, cysteine, homocysteine, cysteinylglycine, etc.) in the serum may induce the structural disintegration of these disulfide bond-containing LNPs. The stabilities of LNPs in the presence of 20 μM of L-cysteine (Cys), which mimics the free thiols on the small- and macromolecules presented in the serum, were examined. […] While the degrees of size changes vary between lipidoids with different amine head groups, all lipidoids were more responsive to DTT (modeling intracellular conditions) than to Cysteine (modeling conditions in the blood serum).

HeLa cells [7] = test: GFP mRNA delivery (GFP+ cells); assay type: cell-based; settings: LNP/mRNA=10/1; [mRNA]=0.86 μg mL^−1; 24 h exposure
From the text: Messenger RNA delivery has great potentials for cancer therapy, protein replacement therapy and neurological disorder treatments.^42 The intracellular delivery of mRNA using OCholB LNPs was studied using GFP mRNA and different cell lines (HeLa, B16F10, HEK-293, NIH/3T3 and Jurkat). The weight ratio of LNP/mRNA was optimized at first using HeLa cells. […] The weight ratio of LNP/mRNA=10/1 was then chose for the following mRNA delivery studies. […] Then the intracellular delivery efficiencies of all fully substituted OCholB LNPs were tested against HeLa cells, and Lpf2k and naked GFP mRNA were used as controls (LNP/mRNA=10/1; [mRNA]=0.86 μg mL^−1; 24 h exposure). […] As to the OCholB LNPs, 75-OCholB (62.0% of GFP^+ cells), 76-OCholB (79.8%), 77-OCholB (73.5%), 78-OCholB (67.1%), 80-OCholB (55.6%), 81-OCholB (51.6%) and 304-OCholB (52.1%) are all determined to be effective. Typical fluorescent images of mRNA/LNPs (mRNA/75-OCholB, mRNA/76-OCholB and mRNA/77-OCholB) treated HeLa cells are shown in FIG. 14C. Comparing to untreated HeLa cells, strong green fluorescent signals were recoded from nanoparticles incubated cells, which is consistent with the flow cytometry data as shown in FIG. 14D. Meanwhile, both 87-OCholB (6.1%) and 90-OCholB (2.5%) are found to be inefficient for GFP mRNA delivery into HeLa cells, which is consistent with the internalization studies using NR (FIG. 12C) and (−30)GFP-Cre protein (FIG. 12F) as the fluorescent reporters.

Row | SMILES | cells positive for DsRed (protein transfection efficiency) (HeLa-DsRed cells [1]) [%] | GFP-positive cells (HeLa-DsRed cells [2]) [%] | genome editing efficacy (DsRed^+ cells), overall (HeLa-DsRed cells [3]) | (−30)GFP-Cre delivery efficiency (GFP^+ cells), overall (HeLa-DsRed cells [4]) | NR^+ cells (HeLa cells [5]) | increase in averaged hydrodynamic diameter [6] [%] | GFP^+ cells (HeLa cells [7]) [%]
1 | CCCCCCCCCCCCCCSCCOC(=O)CCN(CCC(=O)OCCSCCCCCCCCCCCCCC)CCC1CCCN1C (stereo not drawn) [Lipidoid 77-O17S] | 38.6 |  |  |  |  |  | 
2 | CCCCCCCCCCCCCC[Se]CCOC(=O)CCN(CCC(=O)OCC[Se]CCCCCCCCCCCCCC)CCC1CCCN1C (stereo not drawn) [Lipidoid 77-O17Se] | 31.0 | 37 |  |  |  |  | 
3 | CCCCCCCCCCCCCC[Se]CCOC(=O)CCN(CCC(=O)OCC[Se]CCCCCCCCCCCCCC)CCN(C)C [Lipidoid 78-O17Se] | 37.8 |  |  |  |  |  | 
4 | CCCCCCCCCCCCCCSCCOC(=O)CCN(CCCN(C)C)CCC(=O)OCCSCCCCCCCCCCCCCC [Lipidoid 80-O17S] | 45.6 |  |  |  |  |  | 
5 | CC(C)CCCC(C)C1CCC2C3CC=C4CC(OC(=O)NCCSSCCOC(=O)CCN(CCCN(CCO)CCO)CCC(=O)OCCSSCCNC(=O)OC5CCC6(C)C(=CCC7C6CCC6(C)C(C(C)CCCC(C)C)CCC76)C5)CCC4(C)C3CCC12C (stereo not drawn) [Lipidoid 87-OCholB] |  |  | less efficient at delivery | lowest delivery efficiencies | lowest transfection efficacy, comparable to the untreated control group | 210.3 | 6.1
6 | CC(C)CCCC(C)C1CCC2C3CC=C4CC(OC(=O)NCCSSCCOC(=O)CCN(CCC(=O)OCCSSCCNC(=O)OC5CCC6(C)C(=CCC7C6CCC6(C)C(C(C)CCCC(C)C)CCC76)C5)CCN5CCOCC5)CCC4(C)C3CCC12C (stereo not drawn) [Lipidoid 90-OCholB] |  |  | less efficient at delivery | lowest delivery efficiencies | 12.9% | 179.5 | 2.5
